Data: publication PMC4620497 (Scientific Reports, 2015)
pIC50: −log10 of the molar value.

Assays:
[1] = biological target: CDK2 (Homo sapiens, UniProt P24941); parameters: method as in earlier work; conditions: Table S1; cited from earlier work
[2] = biological target: T1, ADCK4 (Homo sapiens, UniProt Q96D53); experiment: KINOMEscan panel screen; assay type: binding; conditions: read-out: Percent Control(%)
T1 construct: purchased DiscoveRx KINOMEscan (Ambit Biosciences)

[3] = biological target: T2, MRCKA (Homo sapiens, UniProt Q5VT25); experiment: KINOMEscan panel screen; assay type: binding; conditions: read-out: Percent Control(%)
T2 construct: purchased DiscoveRx KINOMEscan (Ambit Biosciences)
T2 sequence (Q5VT25 whole entry): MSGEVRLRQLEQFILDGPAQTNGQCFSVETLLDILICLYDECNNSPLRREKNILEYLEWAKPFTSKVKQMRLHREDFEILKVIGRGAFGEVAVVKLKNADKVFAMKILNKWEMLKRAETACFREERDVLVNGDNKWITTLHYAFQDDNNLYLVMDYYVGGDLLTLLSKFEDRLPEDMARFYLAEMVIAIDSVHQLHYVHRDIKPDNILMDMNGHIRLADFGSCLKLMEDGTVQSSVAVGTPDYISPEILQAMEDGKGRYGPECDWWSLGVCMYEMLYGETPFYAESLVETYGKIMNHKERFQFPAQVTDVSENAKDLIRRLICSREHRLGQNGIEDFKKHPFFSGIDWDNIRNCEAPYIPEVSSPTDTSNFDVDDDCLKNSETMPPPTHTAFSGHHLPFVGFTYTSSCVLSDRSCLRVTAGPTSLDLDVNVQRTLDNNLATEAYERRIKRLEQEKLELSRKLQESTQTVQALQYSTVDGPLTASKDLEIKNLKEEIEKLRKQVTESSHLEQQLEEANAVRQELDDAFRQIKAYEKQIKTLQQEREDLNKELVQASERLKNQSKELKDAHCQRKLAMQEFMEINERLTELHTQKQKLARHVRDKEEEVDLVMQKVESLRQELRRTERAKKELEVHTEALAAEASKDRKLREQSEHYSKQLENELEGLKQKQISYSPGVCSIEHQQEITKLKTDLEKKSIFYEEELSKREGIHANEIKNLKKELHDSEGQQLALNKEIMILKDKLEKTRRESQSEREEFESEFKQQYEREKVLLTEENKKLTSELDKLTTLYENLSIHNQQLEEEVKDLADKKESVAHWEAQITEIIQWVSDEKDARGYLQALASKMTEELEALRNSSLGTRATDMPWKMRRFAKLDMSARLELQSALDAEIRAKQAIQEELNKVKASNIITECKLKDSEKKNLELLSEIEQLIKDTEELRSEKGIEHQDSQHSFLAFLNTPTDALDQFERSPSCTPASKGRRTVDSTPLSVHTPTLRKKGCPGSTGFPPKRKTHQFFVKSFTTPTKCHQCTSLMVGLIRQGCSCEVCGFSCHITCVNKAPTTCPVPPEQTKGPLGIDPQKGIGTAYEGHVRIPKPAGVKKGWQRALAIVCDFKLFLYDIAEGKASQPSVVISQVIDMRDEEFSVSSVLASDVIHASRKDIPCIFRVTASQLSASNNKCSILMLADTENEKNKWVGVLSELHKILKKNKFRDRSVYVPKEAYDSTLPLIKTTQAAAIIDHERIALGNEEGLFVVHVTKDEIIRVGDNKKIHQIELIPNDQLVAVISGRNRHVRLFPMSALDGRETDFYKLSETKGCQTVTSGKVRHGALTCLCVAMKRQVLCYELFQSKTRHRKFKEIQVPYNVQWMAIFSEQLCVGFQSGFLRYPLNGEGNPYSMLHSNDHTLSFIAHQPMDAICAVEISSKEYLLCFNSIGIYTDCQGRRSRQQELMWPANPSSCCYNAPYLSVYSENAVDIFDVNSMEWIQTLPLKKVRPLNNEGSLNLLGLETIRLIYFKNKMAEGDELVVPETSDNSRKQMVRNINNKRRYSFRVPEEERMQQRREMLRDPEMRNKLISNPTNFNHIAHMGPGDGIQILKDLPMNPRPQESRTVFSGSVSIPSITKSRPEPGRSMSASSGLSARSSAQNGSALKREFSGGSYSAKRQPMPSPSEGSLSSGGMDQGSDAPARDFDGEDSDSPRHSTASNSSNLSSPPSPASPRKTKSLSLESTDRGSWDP

[4] = biological target: T3, ASK1 (Homo sapiens, UniProt Q99683); experiment: KINOMEscan panel screen; assay type: binding; conditions: read-out: Percent Control(%)
T3 construct: purchased DiscoveRx KINOMEscan (Ambit Biosciences)
T3 sequence (Q99683 whole entry): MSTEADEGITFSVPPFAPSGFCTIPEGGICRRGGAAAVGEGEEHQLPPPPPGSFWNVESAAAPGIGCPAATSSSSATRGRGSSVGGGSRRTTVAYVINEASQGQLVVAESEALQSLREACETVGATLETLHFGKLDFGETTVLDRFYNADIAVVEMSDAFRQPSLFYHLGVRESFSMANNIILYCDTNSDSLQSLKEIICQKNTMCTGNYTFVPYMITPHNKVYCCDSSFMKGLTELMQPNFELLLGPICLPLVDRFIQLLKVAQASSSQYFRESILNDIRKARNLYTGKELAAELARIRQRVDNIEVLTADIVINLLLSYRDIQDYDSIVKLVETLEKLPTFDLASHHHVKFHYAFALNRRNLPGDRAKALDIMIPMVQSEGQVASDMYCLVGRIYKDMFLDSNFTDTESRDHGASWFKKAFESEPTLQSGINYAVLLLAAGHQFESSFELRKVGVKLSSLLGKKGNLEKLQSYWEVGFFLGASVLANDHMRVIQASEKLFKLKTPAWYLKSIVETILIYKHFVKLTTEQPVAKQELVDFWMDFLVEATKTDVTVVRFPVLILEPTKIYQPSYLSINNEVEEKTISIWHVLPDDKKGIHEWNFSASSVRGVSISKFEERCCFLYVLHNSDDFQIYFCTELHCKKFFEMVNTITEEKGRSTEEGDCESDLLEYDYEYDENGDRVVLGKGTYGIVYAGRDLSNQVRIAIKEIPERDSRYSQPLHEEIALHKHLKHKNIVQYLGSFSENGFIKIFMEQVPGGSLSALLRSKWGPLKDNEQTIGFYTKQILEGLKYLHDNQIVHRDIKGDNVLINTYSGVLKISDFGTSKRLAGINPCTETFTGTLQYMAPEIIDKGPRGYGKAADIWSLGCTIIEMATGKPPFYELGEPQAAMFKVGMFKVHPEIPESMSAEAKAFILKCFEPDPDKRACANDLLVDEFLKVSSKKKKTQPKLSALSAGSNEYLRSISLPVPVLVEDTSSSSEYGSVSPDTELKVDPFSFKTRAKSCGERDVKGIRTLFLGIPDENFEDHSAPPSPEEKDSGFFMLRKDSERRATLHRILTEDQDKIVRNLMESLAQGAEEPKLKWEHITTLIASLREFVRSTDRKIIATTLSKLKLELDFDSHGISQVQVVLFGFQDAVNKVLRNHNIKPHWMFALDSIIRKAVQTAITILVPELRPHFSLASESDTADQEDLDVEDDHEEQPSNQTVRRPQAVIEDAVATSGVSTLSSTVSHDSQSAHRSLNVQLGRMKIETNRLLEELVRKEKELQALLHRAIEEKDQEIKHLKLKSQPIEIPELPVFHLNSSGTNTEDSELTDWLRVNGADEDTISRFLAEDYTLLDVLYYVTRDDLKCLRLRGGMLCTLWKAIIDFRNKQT

[5] = tested on: phosphorylation of FLT3 and STAT5 in MV4-11 tumors; experiment: FLT3 signaling in MV4-11 xenograft tumors (western blot); assay type: in vivo, NOD-SCID mice; conditions: single oral dose 10 mg/kg
Experimental: To examine the effects of SKLB-677 on FLT3 and Wnt/β-catenin signaling in vivo, the same MV4-11 xenograft model was used and MV4-11 tumors were harvested at specific time points (0 h, 4 h, 6 h, 8 h, 12 h, and 24 h) after the treatment of 10 mg/kg SKLB-677 (3 mice for each time point). Western blot assays and real-time qPCR assays were conducted on the harvested tumors.
Western blot analysis was performed as previously described. Whole protein lysates of tumor samples were collected by the abrading of tumors in liquid nitrogen. […] Quantitative analysis of the protein level was performed with NIH image analysis software, ImageJ (normalized relative to the vehicle control).
Figure 5 In vivo effects of SKLB-677. […] The tumor volume and body weight were measured every 3 days during the treatment. […] Ki67 and TUNEL were detected with immunohistochemical. […] Tumors were harvested at the indicated time points, and the FLT3 signaling pathway was detected using western blot assays. […] (e) The same harvested tumors were detected using real-time qPCR assays to test the expression of AXIN2 and NKD1 (the target genes of Wnt/β-catenin pathway). […] The plasma concentrations were determined using liquid–liquid extraction followed by high-performance liquid chromatography (HPLC) with tandem mass spectrometric detection.

[6] = tested on: Miapaca-2; experiment: MTT cell viability assay; conditions: Homo sapiens, MIA PaCa-2, 72 h
[7] = biological target: T4, AKT1 (Homo sapiens, UniProt P31749); experiment: KINOMEscan panel screen; assay type: binding; conditions: read-out: Percent Control(%)
T4 construct: purchased DiscoveRx KINOMEscan (Ambit Biosciences)

[8] = biological target: T5, p38-alpha (Homo sapiens, UniProt Q16539); experiment: KINOMEscan panel screen; assay type: binding; conditions: read-out: Percent Control(%)
T5 construct: purchased DiscoveRx KINOMEscan (Ambit Biosciences)
T5 sequence (Q16539 whole entry): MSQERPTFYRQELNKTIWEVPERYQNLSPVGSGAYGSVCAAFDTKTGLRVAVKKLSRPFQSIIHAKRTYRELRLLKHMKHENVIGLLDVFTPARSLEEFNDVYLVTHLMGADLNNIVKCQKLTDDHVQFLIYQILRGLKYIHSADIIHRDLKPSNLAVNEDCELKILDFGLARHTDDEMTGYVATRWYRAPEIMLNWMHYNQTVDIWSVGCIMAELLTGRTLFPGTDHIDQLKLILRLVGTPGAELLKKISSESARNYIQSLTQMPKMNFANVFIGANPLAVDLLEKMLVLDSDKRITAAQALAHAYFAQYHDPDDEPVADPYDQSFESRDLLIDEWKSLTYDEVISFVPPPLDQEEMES

[9] = biological target: T6, TNNI3K (Homo sapiens, UniProt Q59H18); experiment: KINOMEscan panel screen; assay type: binding; conditions: read-out: Percent Control(%)
T6 construct: purchased DiscoveRx KINOMEscan (Ambit Biosciences)
T6 sequence (Q59H18 whole entry): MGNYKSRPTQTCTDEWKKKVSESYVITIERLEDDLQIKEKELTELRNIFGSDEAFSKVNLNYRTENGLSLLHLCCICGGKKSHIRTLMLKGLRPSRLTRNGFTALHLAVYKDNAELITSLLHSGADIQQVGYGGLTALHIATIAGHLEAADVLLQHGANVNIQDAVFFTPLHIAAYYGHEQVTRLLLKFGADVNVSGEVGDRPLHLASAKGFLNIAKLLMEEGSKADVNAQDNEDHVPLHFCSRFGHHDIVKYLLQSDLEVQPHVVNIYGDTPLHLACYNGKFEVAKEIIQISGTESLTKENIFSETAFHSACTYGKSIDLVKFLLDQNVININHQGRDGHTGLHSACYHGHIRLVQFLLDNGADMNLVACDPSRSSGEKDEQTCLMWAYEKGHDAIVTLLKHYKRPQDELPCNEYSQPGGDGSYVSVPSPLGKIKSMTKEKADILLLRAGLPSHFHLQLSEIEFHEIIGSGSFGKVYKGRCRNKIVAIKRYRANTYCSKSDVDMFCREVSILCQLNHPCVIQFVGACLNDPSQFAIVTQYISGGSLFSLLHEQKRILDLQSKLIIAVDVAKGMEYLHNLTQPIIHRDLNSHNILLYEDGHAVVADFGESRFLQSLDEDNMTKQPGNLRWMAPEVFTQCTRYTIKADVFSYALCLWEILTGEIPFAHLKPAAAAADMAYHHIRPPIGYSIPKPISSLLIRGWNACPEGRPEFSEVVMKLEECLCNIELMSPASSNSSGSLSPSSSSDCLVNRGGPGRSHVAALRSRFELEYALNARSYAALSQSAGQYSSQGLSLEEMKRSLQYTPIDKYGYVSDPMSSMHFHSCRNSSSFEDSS

[10] = biological target: T7, MARK4 (Homo sapiens, UniProt Q96L34); experiment: KINOMEscan panel screen; assay type: binding; conditions: read-out: Percent Control(%)
T7 construct: purchased DiscoveRx KINOMEscan (Ambit Biosciences)
T7 sequence (Q96L34 whole entry): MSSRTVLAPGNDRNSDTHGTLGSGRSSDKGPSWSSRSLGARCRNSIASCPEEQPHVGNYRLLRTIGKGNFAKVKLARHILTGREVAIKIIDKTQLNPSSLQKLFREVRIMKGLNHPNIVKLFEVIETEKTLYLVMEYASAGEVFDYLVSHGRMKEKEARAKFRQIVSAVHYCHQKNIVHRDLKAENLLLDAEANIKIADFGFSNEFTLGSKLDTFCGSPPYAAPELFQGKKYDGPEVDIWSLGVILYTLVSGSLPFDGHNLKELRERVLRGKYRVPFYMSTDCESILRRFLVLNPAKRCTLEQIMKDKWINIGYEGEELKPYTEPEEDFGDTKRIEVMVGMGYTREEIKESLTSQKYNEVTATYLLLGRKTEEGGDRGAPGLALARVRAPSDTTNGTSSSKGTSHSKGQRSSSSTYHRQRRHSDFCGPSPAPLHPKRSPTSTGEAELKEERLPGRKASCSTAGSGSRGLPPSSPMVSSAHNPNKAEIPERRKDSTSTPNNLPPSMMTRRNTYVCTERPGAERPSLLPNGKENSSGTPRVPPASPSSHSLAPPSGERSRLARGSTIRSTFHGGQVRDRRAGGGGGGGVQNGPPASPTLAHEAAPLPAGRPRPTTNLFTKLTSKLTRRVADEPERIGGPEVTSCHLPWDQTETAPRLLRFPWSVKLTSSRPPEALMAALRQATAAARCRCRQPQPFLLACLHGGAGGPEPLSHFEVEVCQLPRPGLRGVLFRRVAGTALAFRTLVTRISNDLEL

[11] = tested on: B16; experiment: MTT cell viability assay; conditions: Mus musculus, B16, 72 h
[12] = biological target: T8, EPHA6 (Homo sapiens, UniProt Q9UF33); experiment: KINOMEscan panel screen; assay type: binding; conditions: read-out: Percent Control(%)
T8 construct: purchased DiscoveRx KINOMEscan (Ambit Biosciences)

[13] = biological target: T9, DRAK1 (Homo sapiens, UniProt Q9UEE5); experiment: KINOMEscan panel screen; assay type: binding; conditions: read-out: Percent Control(%)
T9 construct: purchased DiscoveRx KINOMEscan (Ambit Biosciences)

[14] = biological target: T10, p38-gamma (Homo sapiens, UniProt P53778); experiment: KINOMEscan panel screen; assay type: binding; conditions: read-out: Percent Control(%)
T10 construct: purchased DiscoveRx KINOMEscan (Ambit Biosciences)

| SMILES | pIC50 [1] | remaining binding at 10 µM [2] [%] | remaining binding at 10 µM [3] [%] | remaining binding at 10 µM [4] [%] | time for which the effects on p-FLT3 and p-STAT5 were maintained [5] | phosphorylation of FLT3 and STAT5 in tumors ([5]; 4 h posttreatment) | pIC50 [6] | remaining binding at 10 µM [7] [%] | remaining binding at 10 µM [8] [%] | remaining binding at 10 µM [9] [%] | remaining binding at 10 µM [10] [%] | pIC50 [11] | remaining binding at 10 µM [12] [%] | remaining binding at 10 µM [13] [%] | remaining binding at 10 µM [14] [%] |
| --- | --- | --- | --- | --- | --- | --- | --- | --- | --- | --- | --- | --- | --- | --- | --- |
| O=C(Nc1ccc(Oc2ncnc3[nH]ncc23)cc1)Nc1ccc(Cl)c(C(F)(F)F)c1 [Compound 1, 1-(4-(1H-pyrazolo[3,4-d]pyrimidin-4-yloxy)phenyl)-3-(4-chloro-3-(trifluoromethyl)phenyl)urea] | < 5.00 | – | – | – | – | – | – | – | – | – | – | – | – | – | – |
| CC(C)(C)c1cc(NC(=O)Nc2ccc(Oc3ncnc4[nH]ncc34)c(F)c2)no1 [SKLB-677, 1-(4-(1H-pyrazolo[3,4-d]pyrimidin-4-yloxy)-3-fluorophenyl)-3-(5-tert-butylisoxazol-3-yl)urea] | – | 100 | 100 | 57 | up to 24 h | nearly abolished | < 5.00 | 100 | 0 | 0 | 70 | < 5.00 | 0 | 100 | 3.7 |
